The results in this text go back to PubChem BioAssay (NCI).

“And” between values parts separate entries of the source, which are not always exact repeats. Equal entries are not always repeated.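 Assay format: 96-well plates, 48-hour exposure. Here, GI50 denotes the concentration required for 50% inhibition of growth. TGI is the concentration that stops growth completely.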

Common to all, as to test: growth of human tumour cells (NCI), 48 h
In test [1] the test system is A498 renal.
The test system of test [2] is HCT-15 colon.
In test [3] the test system is LOX IMVI melanoma.
The test system of test [4] is MDA-MB-231 breast.
Test [5] deals with MOLT-4 leukemia.
Test [6] relates to NCI-H226 lung.
Test [7] deals with NCI-H522 lung.
For test [8], the system named is OVCAR-5 ovarian.
Test [9] has as its system OVCAR-8 ovarian.
For test [10], the system named is TK-10 renal.

As for `CCC1=C[C@@H]2CN(C1)Cc1c([nH]c3ccccc13)[C@@](C(=O)OC)(c1cc3c(cc1OC)N(C)[C@H]1[C@@](O)(C(=O)OC)[C@H](OC(C)=O)[C@]4(CC)[C@@H]5C[C@@H]5CN5CC[C@]31[C@@H]54)C2`, the GI50 in test [1] is < 0.005 µM and 0.0144 µM; in test [2] it was 0.0162 µM and 0.0881 µM; in test [3] it was under 0.005 µM; in test [4], < 0.005 µM and 0.0335 µM; in [5], under 0.005 µM; in test [6], 0.0191 µM. The GI50 in [7] was under 0.005 µM; in test [9], < 0.005 µM and 0.0292 µM. Besides, the TGI in test [1] was 0.0112 µM and 0.0857 µM; in [2] it was 6.21 µM and 16 µM; in test [6] it was 6.57 µM; in test [7], under 0.005 µM; in test [8], 16.9 µM and 73.9 µM; in test [9] it was 6.9 µM and 12.7 µM.

Turning to `C#CCC(N)(CO)C(=O)O` (stereo not drawn), the TGI in test [1], in [2], in test [3], in test [5], in test [6] and in test [7] was over 100 µM in each case. The TGI in test [8], in [9] and in test [10] was over 100 µM throughout.

With `CC(C)c1ccccc1NC(=O)/C(Cl)=C1/Sc2ccccc2NC1=O`, the TGI is 93.2 µM in test [1]; over 100 µM in test [2]; over 100 µM in test [3]; 79.8 µM in test [5]; over 100 µM in [6]; 51.8 µM in test [7]. Also, the TGI in test [8], in [9] and in [10] was over 100 µM each time.

In the case of `Cc1cc(N(CCC#N)CCC#N)ccc1/C=C1N=C(/C=C/c2ccccc2)OC(=O)N\1`, the TGI in [1], in test [2], in [3], in test [5], in [6] and in test [7] was over 100 µM each time. The TGI in [8], in test [9] and in test [10] was over 100 µM in each case.

On to `O=C(c1ccc2ccccc2c1)c1c(C(F)(F)F)n([O-])c2ccc(Cl)cc2[n+]1=O`, for which the GI50 in test [1] was 1.72 µM; in [2] it was 1.55 µM; in test [3], 0.195 µM; in [4] it was 1.59 µM; in test [6], 1.82 µM; in test [7] it was 1.61 µM. The GI50 in [8] was 1.87 µM; in test [9] it was 1.55 µM; in test [10], 1.81 µM. The TGI turned out to be 3.11 µM in test [1]; 2.94 µM in test [2]; 0.375 µM in test [3]; 3.21 µM in test [4]; 3.56 µM in test [6]; 3.02 µM in test [7]. Moreover, the TGI was 3.58 µM in [8], 2.91 µM in test [9] and 3.35 µM in test [10].

As for `CC(=O)OCC1OC(n2cc([N+](=O)[O-])c(=O)[nH]c2=O)C(OC(C)=O)C(OC(C)=O)C1OC(C)=O` (stereo not drawn), the TGI in [1], in test [2], in test [3], in [5], in [6] and in test [7] was over 100 µM throughout. For the same compound, the TGI in test [8], in test [9] and in [10] was over 100 µM in each case.

For `N=S(c1ccccc1)c1ccccc1[N+](=O)[O-]` (stereo not drawn), the TGI in test [1] was over 100 µM; in [2], 30.4 µM; in [3], 28.2 µM; in test [5], 64.3 µM; in [6] it was 25.4 µM; in test [7], 11.7 µM. For the same compound, the figures for the TGI in test [8], in test [9] and in test [10] were 34.7 µM, 51.5 µM and 34.8 µM, respectively.

On to `Cc1ccc(S(=O)(=O)N/N=C(\c2nc3ccc([N+](=O)[O-])cc3[nH]c2=O)C(O)c2ccccc2Cl)cc1` (stereo not drawn), for which the TGI in test [1] is over 100 µM; in test [2], over 100 µM; in test [3], over 100 µM; in test [5] it was over 100 µM; in [6], over 100 µM; in test [7], 82.6 µM. The TGI in test [8], in [9] and in [10] was over 100 µM in each case.

In the case of `O=c1c2c3c(sc2n2c(-c4cc(-c5ccccc5)nn4-c4ccccc4)nnc2n1Cc1ccccc1)CCCC3`, the GI50 in test [1], in test [2], in test [3], in test [4], in [6] and in test [8] was over 100 µM in each case. Moreover, in [10], the GI50 is over 100 µM. Besides, the TGI in test [1], in [2], in [3], in test [4], in test [6] and in test [8] was over 100 µM throughout. In [10], this compound showed a TGI of over 100 µM.

Consider `C[C@H]1[C@H](C)CC[C@]2(C(=O)NCCNCCN)CC[C@]3(C)C(=CC[C@@H]4[C@@]5(C)CCC(=O)C(C)(C)[C@@H]5CC[C@]43C)[C@H]12`, for which the GI50 in test [1] was 11.8 µM; in [2], 1.73 µM; in test [3], 1.71 µM; in test [4], 1.66 µM; in test [5], 2.2 µM; in [6] it was 14.8 µM. Besides, the GI50 in test [8] is 2.9 µM; in [10] it was 1.84 µM. The TGI turned out to be 27.2 µM in [1]; 3.29 µM in test [2]; 3.13 µM in test [3]; 3.08 µM in [4]; 4.73 µM in test [5]; 45.5 µM in [6]. Besides, the values for the TGI in [8] and in test [10] were 11.3 µM and 3.75 µM, respectively.

Turning to `Cc1ccc2nc3c(Cl)c(C)c(=O)cc-3sc2c1`, the TGI in test [1], in test [2], in [3], in test [5], in test [6] and in test [7] was over 100 µM throughout. The TGI in [8], in test [9] and in test [10] was over 100 µM in each case. Further, the GI50 was 34.3 µM in test [2], 60 µM in test [6], 73.7 µM in test [8] and over 100 µM in [10].

As to `O=C/C(=C(/Cl)c1ccc(O)cc1)c1ccccc1`, the TGI in [1] is over 100 µM; in [2] it was 46 µM; in test [3], 46.9 µM; in test [5], over 69.4 µM; in [6], over 100 µM; in test [7] it was 26.1 µM. Moreover, the values for the TGI in test [8], in test [9] and in [10] were over 100 µM, over 92.4 µM and over 56 µM, respectively.
